# Measured values published in US10752604B2, “C-glucoside derivative containing fused phenyl ring or pharmaceutically acceptable salt thereof, process for preparing same, and pharmaceutical composition comprising same” (Je II Pharmaceutical Co., Ltd., priority 2016, dated 2020).
# pIC50: −log10 of the molar value.
# Assays:
# human SGLT2 = human SGLT2 (Homo sapiens (Human), UniProt P31639); test: Inhibitory effect on human SGLT2 activity (14C-AMG uptake in CHO cells expressing hSGLT2); format: cell-based; details: 14C-AMG transport, CHO cells expressing hSGLT2, 2 hours
# Text: (§1) Human SGLT1 (hSGLT1), human SGLT2 (hSGLT2) genes were amplified from a human marathon-ready cDNA library (Clontech)) by means of an PCR method, after which resulting amplified sequences were combined with a pcDNA 3.1(+) vector, which was a mammalian expression vector, so as to prepare recombinant expression vectors pcDNA3.1(+)/hSGLT1, pcDNA3.1(+)/hSGLT2. Resulting recombinant expression vectors were transformed into Chinese Hamster Ovarian cells, after which stably transformed clones were selected by means of a colony picking method by using a resistance to G418, a selective marker included in the vector. Out of selected clones, clones for expressing hSGLT1 and hSGLT2 were selected based on activity in analysis of ^14C-α-methyl-D-glucopyranoside (^14C-AMG) transport.
# In 1 day after culture, the resulting cells were cultured in a pre-treatment buffer solution (10 mM HEPES, 5 mM tris, 140 mM choline chloride, 2 mM KCl, 1 mM CaCl2 and 1 mM MgCl2, pH 7.4) under 37° C./5% CO2 conditions for 10 minutes. Then, the resulting cells were cultured in a uptake buffer solution (10 mM HEPES, 5 mM tris, 140 mM NaCl, 2 mM KCl, 1 mM CaCl2, 1 mM MgCl2 and 1 mM AMGS pH 7.4) containing 14C-AMG (8 μM) and a compound of the present disclosure or a dimethyl sulfoxide (DMSO) vehicle under 37° C./5% CO2 conditions for 2 hours. After culture, the cells were washed twice with a washing buffer solution (a pre-treatment buffer solution containing 10 mM AMG at room temperature), after which a radiation thereof was measured by using a liquid scintillation counter.
# human SGLT1 = human SGLT1 (Homo sapiens (Human), UniProt P13866); test: Inhibitory effect on human SGLT1 activity (14C-AMG uptake in CHO cells expressing hSGLT1); format: cell-based; details: 14C-AMG transport, CHO cells expressing hSGLT1, 2 hours
# Text: as §1
# To analyze a sodium-dependent glucose transport, cells for expressing hSGLT1 and hSGLT2 were seeded at 1×10^5 cells per well into a 96-well culture plate, after which resulting cells were cultured in an RPMI 1640 medium containing 10% fetal bovine serum (FBS). In 1 day after culture, the resulting cells were cultured in a pre-treatment buffer solution (10 mM HEPES, 5 mM tris, 140 mM choline chloride, 2 mM KCl, 1 mM CaCl2 and 1 mM MgCl2, pH 7.4) under 37° C./5% CO2 conditions for 10 minutes. Then, the resulting cells were cultured in a uptake buffer solution (10 mM HEPES, 5 mM tris, 140 mM NaCl, 2 mM KCl, 1 mM CaCl2, 1 mM MgCl2 and 1 mM AMGS pH 7.4) containing 14C-AMG (8 μM) and a compound of the present disclosure or a dimethyl sulfoxide (DMSO) vehicle under 37° C./5% CO2 conditions for 2 hours. After culture, the cells were washed twice with a washing buffer solution (a pre-treatment buffer solution containing 10 mM AMG at room temperature), after which a radiation thereof was measured by using a liquid scintillation counter. IC50 of each compound was measured according to a non-linear regression analysis by using SigmaPlot (Document Analytical Biochemistry 429: 70-75, Molecular and Cellular Biochemistry 280: 91-98, 2005). SGLT1/2 in-vitro assay results are shown in a following Table 1.
# Sequence of human SGLT1 (P13866 whole entry): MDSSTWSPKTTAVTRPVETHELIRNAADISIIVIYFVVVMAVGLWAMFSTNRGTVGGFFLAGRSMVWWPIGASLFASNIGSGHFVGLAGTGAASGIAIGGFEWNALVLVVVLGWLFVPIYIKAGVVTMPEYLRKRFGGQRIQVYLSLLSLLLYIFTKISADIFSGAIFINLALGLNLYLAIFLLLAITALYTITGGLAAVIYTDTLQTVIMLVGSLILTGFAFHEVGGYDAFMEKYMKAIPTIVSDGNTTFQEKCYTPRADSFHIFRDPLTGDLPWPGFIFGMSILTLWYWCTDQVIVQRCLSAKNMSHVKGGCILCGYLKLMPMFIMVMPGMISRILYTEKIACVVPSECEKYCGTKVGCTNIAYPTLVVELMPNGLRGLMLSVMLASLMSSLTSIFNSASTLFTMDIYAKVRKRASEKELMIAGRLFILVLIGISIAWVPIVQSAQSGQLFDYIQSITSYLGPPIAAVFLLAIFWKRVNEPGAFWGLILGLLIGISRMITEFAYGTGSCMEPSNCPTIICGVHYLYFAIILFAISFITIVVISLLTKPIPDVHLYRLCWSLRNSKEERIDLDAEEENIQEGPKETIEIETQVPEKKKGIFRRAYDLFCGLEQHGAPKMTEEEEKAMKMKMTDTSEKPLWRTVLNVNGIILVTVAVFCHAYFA
# Sequence of human SGLT2 (P31639 whole entry): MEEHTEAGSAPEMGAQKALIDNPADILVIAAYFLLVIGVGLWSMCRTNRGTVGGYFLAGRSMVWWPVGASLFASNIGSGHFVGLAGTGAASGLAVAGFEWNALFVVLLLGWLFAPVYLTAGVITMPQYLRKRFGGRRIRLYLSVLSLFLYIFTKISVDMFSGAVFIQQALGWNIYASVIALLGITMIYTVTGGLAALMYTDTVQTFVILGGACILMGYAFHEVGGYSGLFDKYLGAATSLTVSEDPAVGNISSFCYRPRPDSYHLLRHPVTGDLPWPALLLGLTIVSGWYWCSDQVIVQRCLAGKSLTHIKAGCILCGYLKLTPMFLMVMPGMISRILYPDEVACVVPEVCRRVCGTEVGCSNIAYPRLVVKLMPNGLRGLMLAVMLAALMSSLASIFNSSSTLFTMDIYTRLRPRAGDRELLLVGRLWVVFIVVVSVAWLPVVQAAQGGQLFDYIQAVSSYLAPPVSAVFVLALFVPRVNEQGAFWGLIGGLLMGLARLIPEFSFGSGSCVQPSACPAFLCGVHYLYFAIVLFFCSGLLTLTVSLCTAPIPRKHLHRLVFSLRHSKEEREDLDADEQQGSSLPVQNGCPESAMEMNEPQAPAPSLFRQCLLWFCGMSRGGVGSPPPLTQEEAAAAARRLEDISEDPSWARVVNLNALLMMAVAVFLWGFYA
pIC50 (human SGLT2),pIC50 (human SGLT1),SMILES
8.04,6.63,"CCCc1c([C@@H]2O[C@H](CO)[C@@H](O)[C@H](O)[C@H]2O)cc(Cc2ccc(OC)cc2)c2c1CCC2 [Example 52, (2R,3S,4R,5R,6S)-2-(hydroxymethyl)-6-(7-(4-methoxybenzyl)-4-propyl-2,3-dihydro-1H-indene-5-yl)tetrahydro-2H-pyran-3,4,5-triol]"
8.52,7.12,"CCOc1ccc(Cc2cc([C@@H]3O[C@H](CO)[C@@H](O)[C@H](O)[C@H]3O)c(C)c3c2CCC3)cc1 [Example 2, (2S,3R,4R,5S,6R)-2-(7-(4-ethoxybenzyl)-4-methyl-2,3-dihydro-1H-indene-5-yl)-6-(hydroxymethyl)tetrahydro-2H-pyran-3,4,5-triol]"
7.92,6.54,"CCCCc1c([C@@H]2O[C@H](CO)[C@@H](O)[C@H](O)[C@H]2O)cc(Cc2ccc(C)cc2)c2c1CCC2 [Example 58, (2S,3R,4R,5S,6R)-2-(4-butyl-7-(4-methylbenzyl)-2,3-dihydro-1H-indene-5-yl)-6-(hydroxymethyl)tetrahydro-2H-pyran-3,4,5-triol]"
8.89,8.04,"COc1ccc(Cc2cc([C@@H]3O[C@H](CO)[C@@H](O)[C@H](O)[C@H]3O)c(C)c3c2CCC3)cc1 [Example 1, (2R,3S,4R,5R,6S)-2-(hydroxymethyl)-6-(7-(4-methoxybenzyl)-4-methyl-2,3-dihydro-1H-indene-5-yl)tetrahydro-2H-pyran-3,4,5-triol]"
,6.72,"CCCc1ccc(Cc2cc([C@@H]3O[C@H](CO)C(O)[C@H](O)C3O)c(C)c3c2CCC3)cc1 (stereo in doubt) [Example 6, (2R,3S,4R,5R,6S)-2-(hydroxymethyl)-6-(4-methyl-7-(4-propylbenzyl)-2,3-dihydro-1H-indene-5-yl)tetrahydro-2H-pyran-3,4,5-triol]"
8.69,6.70,"COc1ccc(Cc2cc([C@@H]3O[C@H](CO)[C@@H](O)[C@H](O)[C@H]3O)c(C(C)C)c3c2CCC3)cc1 [Example 61, (2R,3S,4R,5R,6S)-2-(hydroxymethyl)-6-(4-isopropyl-7-(4-methoxybenzyl)-2,3-dihydro-1H-indene-5-yl)tetrahydro-2H-pyran-3,4,5-triol]"
,6.85,"Cc1c([C@@H]2O[C@H](CO)C(O)[C@H](O)C2O)cc(Cc2ccc(OC(C)C)cc2)c2c1CCC2 (stereo in doubt) [Example 3, (2R,3S,4R,5R,6S)-2-(hydroxymethyl)-6-(7-(4-isopropoxybenzyl)-4-methyl-2,3-dihydro-1H-indene-5-yl)tetrahydro-2H-pyran-3,4,5-triol]"
8.43,7.38,"CCc1c([C@@H]2O[C@H](CO)[C@@H](O)[C@H](O)[C@H]2O)cc(Cc2ccc(C)cc2)c2c1CCC2 [Example 41, (2S,3R,4R,5S,6R)-2-(4-ethyl-7-(4-methylbenzyl)-2,3-dihydro-1H-indene-5-yl)-6-(hydroxymethyl)tetrahydro-2H-pyran-3,4,5-triol]"
,6.53,"Cc1c(C2O[C@H](CO)C(O)[C@H](O)C2O)cc(Cc2ccc(C(C)C)cc2)c2c1CCC2 (stereo in doubt) [Example 7, (2R,3S,4R,5R,6S)-2-(hydroxymethyl)-6-(7-(4-isopropylbenzyl)-4-methyl-2,3-dihydro-1H-indene-5-yl)tetrahydro-2H-pyran-3,4,5-triol]"
8.92,7.82,CSc1ccc(Cc2cc([C@@H]3O[C@H](CO)[C@@H](O)[C@H](O)[C@H]3O)c(C)c3c2CCC3)cc1 [Example 13]
8.23,6.43,"CCCCc1c([C@@H]2O[C@H](CO)[C@@H](O)[C@H](O)[C@H]2O)cc(Cc2ccc(OC)cc2)c2c1CCC2 [Example 57, (2S,3R,4R,5S,6R)-2-(4-butyl-7-(4-methoxybenzyl)-2,3-dihydro-1H-indene-5-yl)-6-(hydroxymethyl)tetrahydro-2H-pyran-3,4,5-triol]"
7.42,5.79,"CCc1ccc(Cc2cc([C@@H]3O[C@H](CO)[C@@H](O)[C@H](O)[C@H]3O)c(CC(C)C)c3c2CCC3)cc1 [Example 65, (2S,3R,4R,5S,6R)-2-(7-(4-ethylbenzyl)-4-isobutyl-2,3-dihydro-1H-indene-5-yl)-6-(hydroxymethyl)tetrahydro-2H-pyran-3,4,5-triol]"
,7.84,"Cc1c([C@@H]2O[C@H](CO)[C@@H](O)[C@H](O)[C@H]2O)cc(Cc2ccc(Cl)cc2)c2c1CCC2 [Example 16, (2S,3R,4R,5S,6R)-2-(7-(4-chlorobenzyl)-4-methyl-2,3-dihydro-1H-indene-5-yl)-6-(hydroxymethyl)tetrahydro-2H-pyran-3,4,5-triol]"
8.55,7.40,"CCc1ccc(Cc2cc([C@@H]3O[C@H](CO)C(O)[C@H](O)C3O)c(C)c3c2CCC3)cc1 (stereo in doubt) [Example 5, (2S,3R,4R,5S,6R)-2-(7-(4-ethylbenzyl)-4-methyl-2,3-dihydro-1H-indene-5-yl)-6-(hydroxymethyl)tetrahydro-2H-pyran-3,4,5-triol]"
,6.53,"C=Cc1ccc(Cc2cc([C@@H]3O[C@H](CO)[C@@H](O)[C@H](O)[C@H]3O)c(C)c3c2OCC3)cc1 [Example 34, (2R,3S,4R,5R,6S)-2-(hydroxymethyl)-6-(4-methyl-7-(4-vinylbenzyl)-2,3-dihydrobenzofuran-5-yl)tetrahydro-2H-pyran-3,4,5-triol]"
8.74,7.02,"CCCc1c([C@@H]2O[C@H](CO)[C@@H](O)[C@H](O)[C@H]2O)cc(Cc2ccc(C)cc2)c2c1CCC2 [Example 53, (2R,3S,4R,5R,6S)-2-(hydroxymethyl)-6-(7-(4-methylbenzyl)-4-propyl-2,3-dihydro-1H-indene-5-yl)tetrahydro-2H-pyran-3,4,5-triol]"
7.72,6.29,"Cc1ccc(Cc2cc([C@@H]3O[C@H](CO)[C@@H](O)[C@H](O)[C@H]3O)c(CC(C)C)c3c2CCC3)cc1 [Example 64, (2R,3S,4R,5R,6S)-2-(hydroxymethyl)-6-(4-isobutyl-7-(4-methylbenzyl)-2,3-dihydro-1H-indene-5-yl)tetrahydro-2H-pyran-3,4,5-triol]"
8.56,7.22,"CCc1c([C@@H]2O[C@H](CO)[C@@H](O)[C@H](O)[C@H]2O)cc(Cc2ccc(OC)cc2)c2c1CCC2 [Example 42, (2S,3R,4R,5S,6R)-2-(4-ethyl-7-(4-methoxybenzyl)-2,3-dihydro-1H-indene-5-yl)-6-(hydroxymethyl)tetrahydro-2H-pyran-3,4,5-triol]"

SMILES,pIC50 (human SGLT2),pIC50 (human SGLT1)
"Cc1ccc([C@@H]2O[C@H](CO)[C@@H](O)[C@H](O)[C@H]2O)cc1Cc1ccc(-c2ccc(F)cc2)s1 [Canagliflozin, reference compound]",8.31,6.26
